In patent US4552888A, “Ascorbic acid ethers in angiogene” (Eli Lilly and Company, priority 1983, dated 1985):
Where a name gives a salt, the structure may show the parent alone. Read-outs that look alike come from different tables or passages of the source.

Legend:
[1] = pKa by titration; assay type: physicochemical
[2] = tested on: angiogenesis factor; assay: Inhibition of angiogenesis factor (3683 Morris hepatoma lysosomal-mitochondrial pellet) induced serpentine vessels in mice; assay type: in vivo, mice (SPF/ND4 female)
Protocol: Lysosomal-mitochondrial pellets containing angiogenesis factor are prepared from 3683 Morris hepatoma. The pellet is diluted with 7-8 ml. of 15% ficoll. With this dilution, 8-10 serpentine vessels will be produced per 0.2 cc. injection as described below for the control group.
Next, 15 SPF/ND4 female mice weighing 20-22 g. are shaved on the left side and then divided into three groups of five each. One group (drug group) is injected subcutaneously and laterally with 0.20 cc. of the lysosomal-mitochondrial preparation diluted with 15% ficoll. This group of mice is then dosed individually by the intraperitoneal route with 0.5 cc. of a solution or suspension in a standard vehicle containing the compound under test, usually at an initial dose level of 300 mg./kg. If this dose level is toxic, two-fold dilutions are made until all mice survive a single dose. The second group of mice (control group) is injected subcutaneously and laterally with 0.2 cc. of the lysosomal-mitochondrial suspension diluted with 15% ficoll and dosed intraperitoneally with 0.5 cc. of the vehicle alone. The third group (negative control) is injected with ficoll solution only (no treatment with drug or vehicle). The mice are sacrificed after 24 hours. Each mouse is placed on its side on a dissecting board with the shaved side up. Starting at the flank, the skin is cut straight to the back of the animal. A similar cut is made behind the front leg. Then the skin is cut along the back making a flap of about one inch by two inches. The skin is carefully separated from the connective tissue using forceps and a scalpel. The skin flap is then laid back exposing the lysosomal-mitochondrial implant which is attached to the skin. The skin flap is gently flattened out and with the use of a binocular dissecting scope, serpentine vessels are observed around the lysosomal-mitochondrial implant and their number counted. All observations of the number of serpentine vessels are made at the same power of the microscope (1X). The average number of serpentine vessels for each group is calculated. The percent inhibition is then calculated according to the following equation. [formula] where sv=average number of serpentine vessels.
If the negative control group described above has any serpentine vessels, the test is invalid due to contamination of the ficoll solution.
Table I covers compounds according to formula I above in which R^2 and R^3 are both H, table II covers compounds in which R^2 and R^3 form a 1-methylethylidene group, and Table III compounds in which R^2 plus R^3 equal a benzylidene group or other group.
One of the compounds of this invention, 3-O-n-octadecyl-5,6-O-(1-methylethylidene)-L-ascorbic acid was tested at a series of dose levels for its ability to inhibit tumor angiogenesis and the results of these tests are set forth in Table IV.

[3] = Mus musculus, ip, 24 h, Table 2, i.p., dose 25 mg./kg., 24 hours, read-out: % inhibition (serpentine vessels)
[4] = Mus musculus, ip, 24 h, Table 3, 150 mg./kg. dose intraperitoneally
[5] = Mus musculus, ip, 24 h, Table 1
[6] = Mus musculus, ip, 24 h, Table 1, i.p., dose 25 mg./kg., 24 hours, read-out: average % inhibition (serpentine vessels)
[7] = Mus musculus, ip, 24 h, Table 2, dose 150 mg./kg.
[8] = Table 2, i.p., dose 10 mg./kg., 24 hours

## CCCCCCCCCCCCCCCCCCOC1=C(O)C(=O)O[C@@H]1[C@H](O)CO (relative stereo) [3-O-n-octadecyl isoascorbic acid]
[1]; read-out: pKa
  pKa: 11.6

## CC1(C)OC[C@@H]([C@H]2OC(=O)C(OCCCCC#N)=C2OCCCCC#N)O1 [2,3-O-bis(4-cyanobutyl)-5,6-O-(1-methylethylidene)-L-ascorbic acid]
[1]
  titratable group: No titratable group

## CC1(C)OC[C@@H]([C@H]2OC(=O)C(OCc3ccc(F)cc3)=C2OCc2ccc(F)cc2)O1 [2,3-O-bis(4-fluorobenzyl)-5,6-O-(1-methylethylidene)-L-ascorbic acid]
[1]
  titratable group: No titratable group
[2]; Mus musculus, ip, 24 h, Table 2, dose 37.5 mg./kg.
  inhibition in vivo at 37.5 mg/kg: 45%

## CCCCCCCCCCCCCCCCCCOC1=C(OCCCCCCCCCCCCCCCCCC)[C@@H]([C@@H]2COC(C)(C)O2)OC1=O [2,3-O-bis(n-octadecy-5,6-O-(1-methylethylidene)-L-ascorbic acid]
[1]
  titratable group: No titratable group
[2]; [3]
  inhibition in vivo at 25 mg/kg: 18 to 85%

## CCCCCCCCCCCCCCCOC1=C(OCCCCCCCCCCCCCCC)[C@@H]([C@@H]2COC(C)(C)O2)OC1=O [2,3-O-bis(n-pentadecyl)-5,6-O-(1-methylethylidene)-L-ascorbic acid]
[1]
  titratable group: No titratable groups

## Cc1ccccc1COC1=C(OCc2ccccc2C)[C@@H]([C@@H]2COC(C)(C)O2)OC1=O [2,3-bis(O-2-methylbenzyl)-5,6-O-(1-methylethylidene-L-ascorbic acid]
[1]
  titratable group: No titratable group

## CCCCCCCCCCCCCCCCOC1=C(OCCCCCCCCCCCCCCCC)[C@@H]([C@@H](O)CO)OC1=O [2,3-di-(O-n-hexadecyl)-L-ascorbic acid]
[1]
  titratable group: no titratable group

## CCCCCCCCCCCCCCCCCCOC1=C(OCCCN(C)C)C(=O)O[C@@H]1[C@@H](O)CO [2-O-(3-dimethylaminopropyl)-3-O-n-octadecyl-L-ascorbic acid hydrochloride]
[1]; read-out: pKa
  pKa: 8

## COCCOC1=C(O)C(=O)O[C@@H]1[C@@H]1COC(c2ccccc2)O1 (stereo partly drawn) [3-(2-methoxyethyl)-5,6-O-benzylidine-L-ascorbic acid]
[2]; [4]
  inhibition in vivo at 150 mg/kg: 31%

## COc1ccc(OC)c(C(=O)COC2=C(O)C(=O)O[C@@H]2[C@@H]2COC(C)(C)O2)c1 [3-O-(2,5-dimethoxyphenacyl)-5,6-O-(1-methylethylidene)-L-ascorbic acid]
[1]; read-out: pKa
  pKa: 10.6

## CC1(C)OC[C@@H]([C@H]2OC(=O)C(O)=C2OCCOCCBr)O1 [3-O-(2-bromoethoxyethyl)-5,6-O-(1-methylethylidene)-L-ascorbic acid]
[1]; read-out: pKa
  pKa: 10.4
[2]; Mus musculus, ip, 24 h, Table 2, dose 240 mg./kg.
  inhibition in vivo at 240 mg/kg: 71%

## O=C1O[C@H]([C@@H](O)CO)C(OCCOCCBr)=C1O [3-O-(2-bromoethoxyethyl)-L-ascorbic acid]
[2]; [5]
  inhibition in vivo at 300 mg/kg: 36%

## COCCOC1=C(O)C(=O)O[C@@H]1[C@@H]1COC(C)(C)O1 [3-O-(2-methoxyethyl)-5,6-O-(1-methylethylidene)-L-ascorbic acid]
[1]
  pKa: 10.31
[2]; Table 2, i.p., range dose 10-240 mg./kg., 24 hours
  % inhibition (serpentine vessels): 28-61%

## Cc1ccccc1COC1=C(O)C(=O)O[C@@H]1[C@@H](O)CO [3-O-(2-methylbenzyl)-L-ascorbic acid]
[1]; read-out: pKa
  pKa: 10.8

## CC1(C)OC[C@@H]([C@H]2OC(=O)C(O)=C2OCCN2C(=O)c3ccccc3C2=O)O1 [3-O-(2-phthalimidoethyl)-5,6-O-(1-methylethylidene)-L-ascorbic acid]
[1]; read-out: pKa
  pKa: 10.3
[2]; Mus musculus, ip, 24 h, Table 2, dose 120 mg./kg.
  inhibition in vivo at 120 mg/kg: 30%

## O=C1O[C@H]([C@@H](O)CO)C(OCCN2C(=O)c3ccccc3C2=O)=C1O [3-O-(2-phthalimidoethyl)-L-ascorbic acid]
[2]; [5]
  inhibition in vivo at 300 mg/kg: 55%

## O=C1O[C@H]([C@@H](O)CO)C(OCc2cccc(Br)c2)=C1O [3-O-(3-bromobenzyl)-L-ascorbic acid]
[1]; read-out: pKa
  pKa: 10.5
[2]; [5]
  inhibition in vivo at 300 mg/kg: 74%

## O=C1O[C@H]([C@@H](O)CO)C(OCc2cccc(Cl)c2)=C1O [3-O-(3-chlorobenzyl)-L-ascorbic acid]
[2]; [6]
  inhibition in vivo at 25 mg/kg: 41%

## CC1(C)OC[C@@H]([C@H]2OC(=O)C(O)=C2OCc2cccc(F)c2)O1 [3-O-(3-fluorobenzyl)-5,6-O-(1-methylethylidene)-L-ascorbic acid]
[2]; [3]
  inhibition in vivo at 25 mg/kg: 27 to 82%

## O=C1O[C@H]([C@@H](O)CO)C(OCc2cccc(F)c2)=C1O [3-O-(3-fluorobenzyl)-L-ascorbic acid]
[2]; [6]
  inhibition in vivo at 25 mg/kg: 52%

## Cc1cccc(COC2=C(O)C(=O)O[C@@H]2[C@@H](O)CO)c1 [3-O-(3-methylbenzyl)-L-ascorbic acid]
[2]; [6]
  inhibition in vivo at 25 mg/kg: 54%

## CC1(C)OC[C@@H]([C@H]2OC(=O)C(O)=C2OCCCOc2ccccc2)O1 [3-O-(3-phenoxypropyl)-5,6-O-(1-methylethylidene)-L-ascorbic acid]
[1]; read-out: pKa
  pKa: 10.7
[2]; [7]
  inhibition in vivo at 150 mg/kg: 36%

## O=C1O[C@H]([C@@H](O)CO)C(OCCCOc2ccccc2)=C1O [3-O-(3-phenoxypropyl)-L-ascorbic acid]
[2]; [5]
  inhibition in vivo at 300 mg/kg: 68%

## CC1(C)OC[C@@H]([C@H]2OC(=O)C(O)=C2OCc2ccc([N+](=O)[O-])cc2)O1 [3-O-(4-nitrobenzyl)-5,6-O-(1-methylethylidene)-L-ascorbic acid]
[1]; read-out: pKa
  pKa: 10.1
[2]; [7]
  inhibition in vivo at 150 mg/kg: 42 to 85%

## CC1(C)OC[C@@H]([C@H]2OC(=O)C(O)=C2OCCCCCCCCCCCO)O1 [3-O-(11-hydroxyundecyl)-5,6-O-(1-methylethylidene)-L-ascorbic acid]
[1]; read-out: pKa
  pKa: 10.8
[2]; [7]
  inhibition in vivo at 150 mg/kg: 67%

## O=C(O)CCCCCCCCCCOC1=C(O)C(=O)O[C@@H]1[C@@H](O)CO [3-O-(ω-hydroxycarbonyldecyl)-L-ascorbic acid]
[2]; [6]
  inhibition in vivo at 25 mg/kg: 41%

## CCCCOC1=C(O)C(=O)O[C@@H]1[C@@H]1COC(c2ccccc2)O1 (stereo partly drawn) [3-O-n-butyl-5,6-O-(benzylidene)-L-ascorbic acid]
[2]; [4]
  inhibition in vivo at 150 mg/kg: 60%

## CCCCCCCCCCCCCCCCOC1=C(O)C(=O)O[C@@H]1[C@@H](O)CO [3-O-n-hexadecyl)-L-ascorbic acid]
[1]; read-out: pKa
  pKa: 11.1
[2]; [6]
  inhibition in vivo at 25 mg/kg: 31%

## CCCCCCCCCCCCCCCCCCOC1=C(O)C(=O)O[C@@H]1[C@@H]1COC(C)(CCl)O1 (stereo partly drawn) [3-O-n-octadecyl-5,6-O-(1-chloromethylethylidene)-L-ascorbic acid]
[1]; read-out: pKa
  pKa: 9

## CCCCCCCCCCCCCCCCCCOC1=C(O)C(=O)O[C@H]1[C@H](O)CO [3-O-n-octadecyl-D-ascorbic acid]
[1]; read-out: pKa
  pKa: 11

## CCCCCCCCCCCCCCCOC1=C(O)C(=O)O[C@@H]1[C@@H]1COC(C)(C)O1 [3-O-n-pentadecyl-5,6-O-(1-methylethylidene)-L-ascorbic acid]
[1]; read-out: pKa
  pKa: 10.9

## CCCCCCCCCCCCCCCOC1=C(O)C(=O)O[C@@H]1[C@@H](O)CO [3-O-n-pentadecyl-L-ascorbic acid]
[2]; [5]
  inhibition in vivo at 300 mg/kg: 50%

## O=C1OC(C2COC(Cc3ccccc3)(Cc3ccccc3)O2)C(O)=C1O [5,6-O-(1-benzyl-2-phenylethylidene)-L-ascorbic acid]
[1]; read-out: pKa
  pKa: 6.55

## CC1(CCl)OC[C@@H]([C@H]2OC(=O)C(O)=C2O)O1 (stereo partly drawn) [5,6-O-(1-chloromethylethylidene)-L-ascorbic acid]
[1]; read-out: pKa
  pKa: 6.1

## CCCCCCCCCCC1OC[C@@H]([C@H]2OC(=O)C(O)=C2O)O1 (stereo partly drawn) [5,6-O-undecylidene-L-ascorbic acid]
[1]; read-out: pKa
  pKa: 6.48

## O=C1O[C@H]([C@@H](O)CO)C(OCc2ccccc2Cl)=C1O [R=2-chlorobenzyl, R^1=H (Table 1)]
[2]; Table 1, i.p., dose 25 mg./kg., 24 hours
  average % inhibition (serpentine vessels): 55%

## CCOC(=O)COC1=C(O)C(=O)O[C@@H]1[C@@H]1COC(C)(C)O1 [R=C2 H5 OCOCH2, R^1=H (Table 2)]
[2]; [8]
  % inhibition (serpentine vessels): 12%

## COC1=C(O)C(=O)O[C@@H]1[C@@H]1COC(C)(C)O1 [R=methyl, R^1=H (Table 2)]
[2]; [8]
  % inhibition (serpentine vessels): 15%

## CCCCOC1=C(O)C(=O)O[C@@H]1[C@@H]1COC(C)(C)O1 [R=n-butyl, R^1=H (Table 2)]
[2]; [8]
  % inhibition (serpentine vessels): 60%

## CCCCCCCCCCOC1=C(O)C(=O)O[C@@H]1[C@@H]1COC(C)(C)O1 [R=n-decyl, R^1=H (Table 2)]
[2]; [8]
  % inhibition (serpentine vessels): 48%

## CCCCCCOC1=C(O)C(=O)O[C@@H]1[C@@H]1COC(C)(C)O1 [R=n-hexyl, R^1=H (Table 2)]
[2]; [8]
  % inhibition (serpentine vessels): 41%
